In patent US20190292524A1, “METHODS FOR CANCER STEM CELL (CSC) EXPANSION” (TRANSGENEX NANOBIOTECH, INC., priority 2016, published 2019):

Tested on: MCF-7 cells
Experiment: CD44+ CD24− CSC population in MCF-7 tumoroids by flow cytometry
Assay type: cell-based, human
Details: regular growth medium supplemented with 50 μM cobalt chloride, first-generation MCF-7 tumoroids, day 6
Procedure: We first plated MCF-7 cells in regular growth medium, consisting of RPMI-1640 supplemented with 10% fetal bovine serum (FBS) and 1× penicillin-streptomycin. The cells were plated at ^˜7,000 cells per scaffold in a 96-well cell culture plate. Fresh medium was added on the second day post-seeding and on day 6 post-seeding, the tumoroids were visualized using NucBlue® dye. After confirming the presence of healthy looking tumoroids, they were detached from the scaffold and processed for single cell suspensions using accutase:citrate solution (1:1 ratio). The single cell suspension was then counted for viability and stained with human anti-CD44-APC-cy7 and anti-CD24-APC. DAPI was used to differentiate the live cells within the single cell population and the CD44^+ CD24^− cell population was determined from the live cells using flow cytometry.
We first grew first-generation tumoroids, as described before. The first-generation tumoroids were then processed for single-cell suspensions and plated at ^˜8,000 cells per scaffold in a 96-well cell culture plate. […]
Because hypoxia appears to be required for the maintenance of CSCs, we wanted to test this in our 3D model using cobalt chloride, a known inducer of hypoxia. […] DAPI was used to differentiate the live cells within the single-cell population and the CD44^+ CD24^− cell population was determined using flow cytometry. […]

[Cl][Co][Cl] [cobalt chloride]
change in percentage of CSCs: did not change the percentage of CSCs
